Experimental data as given in the NIST ThermoML archive (doi:10.1021/je900615b).
Values joined by “and” are separate entries in the source; they are usually repeats but may differ in a detail not shown here. Equal values may be shown once.

Details: Liquid, Hot wire method

CCOCC [diethyl ether]
Details	thermal conductivity [W/m/K]
234.64 K, 100 kPa	0.1453
234.88 K, 20100 kPa	0.1543
234.9 K, 30300 kPa	0.1565
234.92 K, 20100 kPa	0.1542
235.03 K, 100 kPa	0.1461
235.09 K, 20200 kPa	0.1538
235.1 K, 10100 kPa	0.1496
235.17 K, 5100 kPa	0.1478
235.22 K, 30200 kPa	0.1563
235.4 K, 30400 kPa	0.1559
235.48 K, 10100 kPa	0.1499
235.53 K, 5100 kPa	0.1479
235.89 K, 10100 kPa	0.15
235.93 K, 5100 kPa	0.1477
235.94 K, 100 kPa	0.1456
254.64 K, 20200 kPa	0.1484
254.74 K, 30000 kPa	0.1514
254.75 K, 5200 kPa	0.1408
254.86 K, 30000 kPa	0.1512
254.91 K, 19700 kPa	0.1477
254.95 K, 100 kPa	0.1386
254.98 K, 10100 kPa	0.1427
254.99 K, 4900 kPa	0.1411
255.26 K, 100 kPa	0.1386
255.28 K, 29900 kPa	0.1512
255.34 K, 20200 kPa	0.1475
255.37 K, 5100 kPa	0.1407
255.38 K, 10200 kPa	0.1432
255.69 K, 10000 kPa	0.1427
255.7 K, 100 kPa	0.1386
274.69 K, 100 kPa	0.1315
274.7 K, 20100 kPa	0.1409
274.71 K, 5000 kPa	0.1338
274.71 K, 10000 kPa	0.1363
274.92 K, 30000 kPa	0.1447
274.93 K, 20000 kPa	0.1409
274.96 K, 100 kPa	0.1319
274.97 K, 10000 kPa	0.1362
275.21 K, 30000 kPa	0.145
275.37 K, 100 kPa	0.1317
275.38 K, 5000 kPa	0.1339
275.56 K, 10100 kPa	0.1364
275.64 K, 30000 kPa	0.145
275.7 K, 20000 kPa	0.1407
275.79 K, 5000 kPa	0.134
294.61 K, 20200 kPa	0.1366
294.79 K, 10100 kPa	0.1311
294.81 K, 5100 kPa	0.128
294.83 K, 29900 kPa	0.1419
294.93 K, 20000 kPa	0.1366
295.04 K, 5000 kPa	0.128
295.06 K, 10100 kPa	0.1309
295.08 K, 29700 kPa	0.1416
295.25 K, 20000 kPa	0.1365
295.26 K, 10000 kPa	0.1308
295.31 K, 100 kPa	0.1248
295.43 K, 5100 kPa	0.1277
295.53 K, 29900 kPa	0.1419
295.6 K, 100 kPa	0.1252
296.02 K, 100 kPa	0.125
314.33 K, 5100 kPa	0.1201
314.44 K, 5300 kPa	0.1205
314.55 K, 30100 kPa	0.1357
314.6 K, 10000 kPa	0.1231
314.95 K, 10100 kPa	0.1236
314.95 K, 20100 kPa	0.1291
314.95 K, 30100 kPa	0.1361
315.01 K, 200 kPa	0.1187
315.13 K, 200 kPa	0.1182
315.21 K, 5200 kPa	0.1202
315.39 K, 30100 kPa	0.1356
315.5 K, 200 kPa	0.1182
315.52 K, 10100 kPa	0.1232
315.56 K, 20200 kPa	0.1289
315.91 K, 20100 kPa	0.1287
335.02 K, 5100 kPa	0.1127
335.13 K, 20300 kPa	0.1222
335.21 K, 5100 kPa	0.1127
335.28 K, 200 kPa	0.1093
335.3 K, 30200 kPa	0.1275
335.33 K, 10200 kPa	0.1159
335.33 K, 19900 kPa	0.1217
335.63 K, 5200 kPa	0.1126
335.71 K, 20400 kPa	0.1224
335.72 K, 10100 kPa	0.1162
335.72 K, 30000 kPa	0.1271
335.78 K, 200 kPa	0.1091
336.08 K, 200 kPa	0.1092
336.13 K, 30200 kPa	0.1269
336.17 K, 10100 kPa	0.1159
354.59 K, 30000 kPa	0.1208
354.75 K, 5000 kPa	0.1044
355.05 K, 10000 kPa	0.1084
355.05 K, 30000 kPa	0.1206
355.08 K, 500 kPa	0.1001
355.18 K, 20000 kPa	0.115
355.32 K, 10100 kPa	0.1082
355.37 K, 5000 kPa	0.1048
355.39 K, 30000 kPa	0.1204
355.52 K, 500 kPa	0.1001
355.52 K, 20000 kPa	0.1148
355.74 K, 5000 kPa	0.1045
355.8 K, 10000 kPa	0.1079
355.82 K, 500 kPa	0.1002
356.03 K, 20000 kPa	0.1147
374.62 K, 10000 kPa	0.1004
374.7 K, 5200 kPa	0.0974
374.92 K, 30000 kPa	0.1132
375.01 K, 29700 kPa	0.1131
375.06 K, 10000 kPa	0.1011
375.22 K, 20000 kPa	0.1081
375.25 K, 5100 kPa	0.0973
375.4 K, 5000 kPa	0.0973
375.46 K, 10000 kPa	0.1008
375.51 K, 29800 kPa	0.1135
375.62 K, 20000 kPa	0.1082
375.72 K, 700 kPa	0.0926
376.18 K, 700 kPa	0.0925
376.28 K, 20000 kPa	0.1076
376.8 K, 700 kPa	0.0923

CC(C)OC(C)C [diisopropyl ether]
Details	thermal conductivity
235.46 K, 100 kPa	0.1259 W/m/K
235.54 K, 100 kPa	0.1258 W/m/K
236.06 K, 100 kPa	0.1259 W/m/K
236.15 K, 30600 kPa	0.1369 W/m/K
236.25 K, 5000 kPa	0.128 W/m/K
236.29 K, 10100 kPa	0.13 W/m/K
236.33 K, 5000 kPa	0.1275 W/m/K
236.44 K, 20200 kPa	0.1331 W/m/K
236.45 K, 20300 kPa	0.1337 W/m/K
236.53 K, 29900 kPa	0.1364 W/m/K
236.67 K, 5000 kPa	0.1277 W/m/K
236.7 K, 10200 kPa	0.1305 W/m/K
236.8 K, 20300 kPa	0.1337 W/m/K
236.92 K, 30000 kPa	0.1363 W/m/K
237.15 K, 10200 kPa	0.1302 W/m/K
254.4 K, 20400 kPa	0.1276 W/m/K
254.47 K, 30400 kPa	0.1314 W/m/K
254.66 K, 5100 kPa	0.122 W/m/K
254.73 K, 100 kPa	0.1201 W/m/K
254.74 K, 10000 kPa	0.1238 W/m/K
254.76 K, 29500 kPa	0.1312 W/m/K
254.86 K, 10200 kPa	0.1241 W/m/K
254.89 K, 5300 kPa	0.1223 W/m/K
254.9 K, 20100 kPa	0.128 W/m/K
255.08 K, 100 kPa	0.1205 W/m/K
255.13 K, 10100 kPa	0.1236 W/m/K
255.14 K, 5100 kPa	0.1221 W/m/K
255.26 K, 100 kPa	0.1199 W/m/K
255.58 K, 30100 kPa	0.1315 W/m/K
255.61 K, 19900 kPa	0.1285 W/m/K
274.6 K, 30000 kPa	0.1274 W/m/K
274.72 K, 10100 kPa	0.1177 W/m/K
274.86 K, 29900 kPa	0.1269 W/m/K
274.89 K, 20000 kPa	0.122 W/m/K
274.95 K, 5100 kPa	0.1154 W/m/K
275 K, 100 kPa	0.1129 W/m/K
275.02 K, 10000 kPa	0.1178 W/m/K
275.17 K, 30100 kPa	0.1271 W/m/K
275.19 K, 5000 kPa	0.115 W/m/K
275.25 K, 10000 kPa	0.1175 W/m/K
275.3 K, 100 kPa	0.1135 W/m/K
275.51 K, 20100 kPa	0.1218 W/m/K
275.6 K, 5000 kPa	0.1152 W/m/K
275.91 K, 100 kPa	0.1131 W/m/K
276.04 K, 20100 kPa	0.1219 W/m/K
294.58 K, 100 kPa	0.1073 W/m/K
294.64 K, 30100 kPa	0.1197 W/m/K
294.65 K, 10000 kPa	0.1118 W/m/K
294.95 K, 5000 kPa	0.1089 W/m/K
294.98 K, 10000 kPa	0.1115 W/m/K
295.03 K, 100 kPa	0.1071 W/m/K
295.13 K, 20100 kPa	0.1161 W/m/K
295.14 K, 30100 kPa	0.1199 W/m/K
295.27 K, 30000 kPa	0.1198 W/m/K
295.32 K, 10100 kPa	0.1111 W/m/K
295.35 K, 5000 kPa	0.1085 W/m/K
295.6 K, 20100 kPa	0.116 W/m/K
295.7 K, 100 kPa	0.1066 W/m/K
295.82 K, 5000 kPa	0.1087 W/m/K
296.18 K, 20100 kPa	0.1159 W/m/K
314.96 K, 30000 kPa	0.1145 W/m/K
315.03 K, 5000 kPa	0.1027 W/m/K
315.07 K, 20000 kPa	0.1105 W/m/K
315.13 K, 100 kPa	0.0993 W/m/K
315.24 K, 30000 kPa	0.1144 W/m/K
315.26 K, 20000 kPa	0.1099 W/m/K
315.35 K, 10000 kPa	0.105 W/m/K
315.39 K, 5000 kPa	0.1023 W/m/K
315.48 K, 100 kPa	0.0996 W/m/K
315.71 K, 10000 kPa	0.1054 W/m/K
315.73 K, 5100 kPa	0.1027 W/m/K
315.76 K, 20000 kPa	0.1104 W/m/K
315.88 K, 100 kPa	0.0994 W/m/K
315.98 K, 30000 kPa	0.1144 W/m/K
316.26 K, 10000 kPa	0.105 W/m/K
334.99 K, 10100 kPa	0.0998 W/m/K
335.01 K, 5400 kPa	0.0959 W/m/K
335.11 K, 20000 kPa	0.1038 W/m/K
335.23 K, 100 kPa	0.0935 W/m/K
335.29 K, 29900 kPa	0.1093 W/m/K
335.32 K, 10100 kPa	0.0995 W/m/K
335.46 K, 100 kPa	0.0932 W/m/K
335.51 K, 30200 kPa	0.1094 W/m/K
335.68 K, 19700 kPa	0.1043 W/m/K
335.72 K, 30000 kPa	0.1096 W/m/K
335.84 K, 5000 kPa	0.096 W/m/K
335.84 K, 10100 kPa	0.0995 W/m/K
335.94 K, 100 kPa	0.0931 W/m/K
336.31 K, 20100 kPa	0.1042 W/m/K
336.37 K, 5200 kPa	0.0959 W/m/K
354.72 K, 29900 kPa	0.106 W/m/K and 0.1051 W/m/K
354.85 K, 19700 kPa	0.1006 W/m/K
354.97 K, 5000 kPa	0.0913 W/m/K
354.97 K, 19800 kPa	0.1 W/m/K
355.23 K, 10100 kPa	0.0944 W/m/K
355.29 K, 300 kPa	0.0865 W/m/K
355.33 K, 10100 kPa	0.0944 W/m/K
355.45 K, 5000 kPa	0.0916 W/m/K
355.47 K, 20100 kPa	0.1001 W/m/K
355.56 K, 5000 kPa	0.091 W/m/K
355.66 K, 300 kPa	0.0869 W/m/K
355.87 K, 10000 kPa	0.094 W/m/K
356.04 K, 300 kPa	0.0866 W/m/K
356.04 K, 29900 kPa	0.1056 W/m/K
374.75 K, 30000 kPa	0.1021 W/m/K
374.95 K, 29800 kPa	0.1021 W/m/K
375.12 K, 20000 kPa	0.0959 W/m/K
375.24 K, 400 kPa	0.0813 W/m/K
375.25 K, 10000 kPa	0.0893 W/m/K
375.4 K, 5100 kPa	0.0858 W/m/K
375.47 K, 400 kPa	0.0812 W/m/K
375.55 K, 30300 kPa	0.1026 W/m/K
375.57 K, 20000 kPa	0.0957 W/m/K
375.61 K, 10000 kPa	0.0889 W/m/K
375.75 K, 5100 kPa	0.0853 W/m/K
375.87 K, 400 kPa	0.0816 W/m/K
376.05 K, 20000 kPa	0.0955 W/m/K
376.23 K, 10000 kPa	0.089 W/m/K
376.26 K, 5100 kPa	0.0854 W/m/K
